Measurements taken from patent publication US7462600B2, “Macrolides” (Pfizer Inc, priority 2004, dated 2008).
≈ marks a conversion by molar mass, not a printed value. Where two headings read alike, the source gives them in different places.

Columns and labels:
Assay type in all cases: cell-based
[1] = test system: Streptococcus pneumoniae 1016; assay: MIC, microtiter broth dilution (NCCLS M100-S14), S. pneumoniae 1016 (susceptible)
Method in brief: (§1)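 Compounds were first dissolved in DMSO (40 mg/ml stock), then tested by broth dilution in microtiter trays. MICs were interpreted using the 14th Informational Supplement (M100-S14) criteria.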

[2] = test system: Streptococcus pyogenes 1079; assay: MIC, microtiter broth dilution (NCCLS M100-S14), S. pyogenes 1079 (ermB)
Method in brief: as §1

[3] = test system: Haemophilus influenzae 1218; assay: MIC, microtiter broth dilution (NCCLS M100-S14), H. influenzae 1218 (susceptible)
Method in brief: as §1

[4] = test system: Streptococcus pneumoniae 1095; conditions: microtiter broth dilution
Method in brief: as §1

[5] = test system: Streptococcus pneumoniae 1175; conditions: microtiter broth dilution
Method in brief: as §1

[6] = S. pneumoniae 1016 (susceptible)
[7] = H. influenzae 1218 (susceptible)

Structure (SMILES)	MIC S. pneumo. 1016 ([1]; Streptococcus pneumoniae 1016) [µg/mL]	MIC S. pyogenes 1079 ([2]; Streptococcus pyogenes 1079) [µg/mL]	MIC H. influenzae 1218 ([3]; Haemophilus influenzae 1218) [µg/mL]	MIC S. pneumo. 1095 ([4]; Streptococcus pneumoniae 1095) [µg/mL]	MIC S. pneumo. 1175 ([5]; Streptococcus pneumoniae 1175) [µg/mL]	MIC S. pneumo. 1016 [1, 6] [µg/mL]	MIC S. pyogenes 1079 ([2]; S. pyogenes 1079 (ermB)) [µg/mL]	MIC H. influenzae 1218 [3, 7] [µg/mL]	MIC S. pneumo. 1095 ([4]; S. pneumoniae 1095 (ermB)) [µg/mL]	MIC S. pneumo. 1175 ([5]; S. pneumoniae 1175 (mefA)) [µg/mL]
CC[C@H]1OC(=O)[C@H](C)C(=O)[C@H](C)[C@@H](O[C@@H]2O[C@H](C)C[C@H](N(C)C)[C@H]2O)[C@](C)(OC)C[C@@H](C)C(=O)[C@H](C)[C@H]2N(C3CN(Cc4c(C#N)cnc5ccccc45)C3)C(=O)O[C@]12C [Example 1.73, 3-descladinosyl-11,12-dideoxy-6-O-methyl-3-oxo-12,11-(oxycarbonyl-(1-(quinoline-3-carbonitrile-4-methyl)-azetidin-3-yl)-imino)erythromycin A]	<0.063	0.125 (≈ 0.15 µM)	2 (≈ 2.4 µM)	<0.063	<0.063	–	–	–	–	–
CCC1OC(=O)C(C)C(=O)C(C)C(OC2OC(C)CC(N(C)C)C2O)C(C)(OC)CC(C)C(=O)C(C)C2N(C3CN(S(=O)(=O)c4cccc5ccccc45)C3)C(=O)OC12C (centres unmarked) [Example 3.02, 3-descladinosyl-11,12-dideoxy-6-O-methyl-3-oxo-12,11-(oxycarbonyl-(1-(naphthalene-1-sulfonyl)-azetidin-3-yl)-imino)-erythromycin A]	<0.06	0.5 (≈ 0.583 µM)	0.12 (≈ 0.14 µM)	<0.06	<0.06	–	–	–	–	–
CCC1OC(=O)C(C)C(=O)C(C)C(OC2OC(C)CC(N(C)C)C2O)C(C)(OC)CC(C)C(=O)C(C)C2N(C3CCN(Cc4cccc5ncccc45)C3)C(=O)OC12C [Example 9.02, 3-descladinosyl-11,12-dideoxy-6-O-methyl-3-oxo-12,11-(oxycarbonyl-(1-((quinolin-5-yl)-methyl)-(R)-pyrrolidin-3-yl)-imino)-erythromycin A]	–	–	–	–	–	<0.06	8 (≈ 9.72 µM)	0.5 (≈ 0.608 µM)	<0.06	0.12 (≈ 0.146 µM)
CCOc1ccc2ccccc2c1CN1CC(N2C(=O)OC3(C)C(CC)OC(=O)C(C)C(=O)C(C)C(OC4OC(C)CC(N(C)C)C4O)C(C)(OC)CC(C)C(=O)C(C)C23)C1 (centres unmarked) [Example 1.97, 3-descladinosyl-11,12-dideoxy-6-O-methyl-3-oxo-12,11-(oxycarbonyl-(1-(2-ethoxynaphthalene-1-methyl)-azetidin-3-yl)-imino)-erythromycin A]	<0.063	2 (≈ 2.35 µM)	0.5 (≈ 0.587 µM)	<0.063	<0.063	–	–	–	–	–
CCC1OC(=O)C(C)C(=O)C(C)C(OC2OC(C)CC(N(C)C)C2O)C(C)(OC)CC(C)C(=O)C(C)C2N(C3CN(S(=O)(=O)c4ccc(-n5cccn5)c(F)c4)C3)C(=O)OC12C (centres unmarked) [Example 3.86, 3-descladinosyl-11,12-dideoxy-6-O-methyl-3-oxo-12,11-(oxycarbonyl-(1-(3-fluoro-4-(1H-pyrazol-1-yl)benzenesulfonyl)-azetidin-3-yl)-imino)-erythromycin A]	<0.06	1 (≈ 1.12 µM)	1 (≈ 1.12 µM)	<0.06	<0.06	–	–	–	–	–
CCC1OC(=O)C(C)C(=O)C(C)C(OC2OC(C)CC(N(C)C)C2O)C(C)(OC)CC(C)C(=O)C(C)C2N(CC3CCCN3C(=O)c3ccc4ncccc4c3)C(=O)OC12C (centres unmarked) [10.06]	–	–	–	–	–	<0.06	64 (≈ 75.2 µM)	2 (≈ 2.35 µM)	<0.06	0.12 (≈ 0.141 µM)
CCC1OC(=O)C(C)C(=O)C(C)C(OC2OC(C)CC(N(C)C)C2O)C(C)(OC)CC(C)C(=O)C(C)C2N(C3CN(S(=O)(=O)c4ncn5ccccc45)C3)C(=O)OC12C (centres unmarked) [Example 3.19, 3-descladinosyl-11,12-dideoxy-6-O-methyl-3-oxo-12,11-(oxycarbonyl-(1-(H-imidazo[1,5-a]pyridine-1-sulfonyl)-azetidin-3-yl)-imino)-erythromycin A]	<0.06	1 (≈ 1.18 µM)	0.25 (≈ 0.295 µM)	<0.06	<0.06	–	–	–	–	–
CCC1OC(=O)C(C)C(=O)C(C)C(OC2OC(C)CC(N(C)C)C2O)C(C)(OC)CC(C)C(=O)C(C)C2N(C3CN(S(=O)(=O)c4ccc(-n5cncn5)cc4)C3)C(=O)OC12C (centres unmarked) [Example 3.52, 3-descladinosyl-11,12-dideoxy-6-O-methyl-3-oxo-12,11-(oxycarbonyl-(1-(4-(1H-1,2,4-triazol-1-yl)benzenesulfonyl)-azetidin-3-yl)-imino)-erythromycin A]	<0.06	4 (≈ 4.57 µM)	2 (≈ 2.29 µM)	0.12 (≈ 0.137 µM)	0.12 (≈ 0.137 µM)	–	–	–	–	–
CC[C@H]1OC(=O)[C@H](C)C(=O)[C@H](C)[C@@H](O[C@@H]2O[C@H](C)C[C@H](N(C)C)[C@H]2O)[C@](C)(OC)C[C@@H](C)C(=O)[C@H](C)[C@H]2N(CC3(O)CN(C(=O)c4cccc5ccncc45)C3)C(=O)O[C@]12C [7.24]	–	–	–	–	–	<0.06	>64.00	2 (≈ 2.34 µM)	2 (≈ 2.34 µM)	1 (≈ 1.17 µM)
CCC1OC(=O)C(C)C(=O)C(C)C(OC2OC(C)CC(N(C)C)C2O)C(C)(OC)CC(C)C(=O)C(C)C2N(C3CN(C(c4ccccc4)c4cccnc4)C3)C(=O)OC12C (single isomer, unassigned) [Example 1.67, phenyl-(pyridin-3-yl)methyl (*)]	<0.06	16 (≈ 19.2 µM)	0.5 (≈ 0.599 µM)	<0.06	<0.06	–	–	–	–	–
CCC1OC(=O)C(C)C(=O)C(C)C(OC2OC(C)CC(N(C)C)C2O)C(C)(OC)CC(C)C(=O)C(C)C2N(C3CN(C(=O)c4cccc(-c5noc(C)n5)c4)C3)C(=O)OC12C (centres unmarked) [Example 2.16, 3-(5-methyl-1,2,4-oxadiazol-3-yl)benzoyl]	<0.06	>64.00	64 (≈ 74.9 µM)	16 (≈ 18.7 µM)	0.25 (≈ 0.293 µM)	–	–	–	–	–
CCC1OC(=O)C(C)C(=O)C(C)C(OC2OC(C)CC(N(C)C)C2O)C(C)(OC)CC(C)C(=O)C(C)C2N(CC3CCN(Cc4cnn(-c5cccnc5)c4)C3)C(=O)OC12C (centres unmarked) [11.15]	–	–	–	–	–	<0.06	64 (≈ 75 µM)	2 (≈ 2.34 µM)	<0.06	0.5 (≈ 0.586 µM)
CCC1OC(=O)C(C)C(=O)C(C)C(OC2OC(C)CC(N(C)C)C2O)C(C)(OC)CC(C)C(=O)C(C)C2N(C3CN(Cc4cccc5ncoc45)C3)C(=O)OC12C (centres unmarked) [Example 1.13, (benzooxazol-7-yl)methyl]	<0.06	64 (≈ 80.1 µM)	0.25 (≈ 0.313 µM)	0.12 (≈ 0.15 µM)	1 (≈ 1.25 µM)	–	–	–	–	–
CCC1OC(=O)C(C)C(=O)C(C)C(OC2OC(C)CC(N(C)C)C2O)C(C)(OC)CC(C)C(=O)C(C)C2N(C3CCN(Cc4ccnc5ncccc45)C3)C(=O)OC12C [Example 9.05, 3-descladinosyl-11,12-dideoxy-6-O-methyl-3-oxo-12,11-(oxycarbonyl-(1-((1,8-naphthyridin-4-yl)-methyl)-(R)-pyrrolidin-3-yl)-imino)erythromycin A]	–	–	–	–	–	<0.06	8 (≈ 9.71 µM)	8 (≈ 9.71 µM)	0.5 (≈ 0.607 µM)	0.5 (≈ 0.607 µM)
CCC1OC(=O)C(C)C(=O)C(C)C(OC2OC(C)CC(N(C)C)C2O)C(C)(OC)CC(C)C(=O)C(C)C2N(CC3CCCN3C(=O)c3ccc4[nH]ncc4c3)C(=O)OC12C (centres unmarked) [10.32]	–	–	–	–	–	<0.06	>64.00	1 (≈ 1.19 µM)	<0.06	0.5 (≈ 0.595 µM)
CCC1OC(=O)C(C)C(=O)C(C)C(OC2OC(C)CC(N(C)C)C2O)C(C)(OC)CC(C)C(=O)C(C)C2N(C3CN(S(=O)(=O)c4ccc5nn[nH]c5c4)C3)C(=O)OC12C (centres unmarked) [Example 3.57]	<0.06	4 (≈ 4.71 µM)	1 (≈ 1.18 µM)	<0.06	8 (≈ 9.42 µM)	–	–	–	–	–
